Calls of active or inactive are those of the source.
How the values were obtained:
Cytochrome P450 2D6 = Cytochrome P450 2D6 (Homo sapiens, UniProt P10635);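 also: CYP2D6 member of a cytochrome P450 panel assay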
Cytochrome P450 3A4 = Cytochrome P450 3A4 (Homo sapiens, UniProt P08684);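 also: CYP3A4 tested as one member of a cytochrome P450 panel screen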
Cytochrome P450 1A2 = target: T1, Cytochrome P450 1A2 (Homo sapiens, UniProt P05177);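 also: PubChem cytochrome P450 panel assay, CYP1A2 panel member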
T1 sequence (P05177 whole entry): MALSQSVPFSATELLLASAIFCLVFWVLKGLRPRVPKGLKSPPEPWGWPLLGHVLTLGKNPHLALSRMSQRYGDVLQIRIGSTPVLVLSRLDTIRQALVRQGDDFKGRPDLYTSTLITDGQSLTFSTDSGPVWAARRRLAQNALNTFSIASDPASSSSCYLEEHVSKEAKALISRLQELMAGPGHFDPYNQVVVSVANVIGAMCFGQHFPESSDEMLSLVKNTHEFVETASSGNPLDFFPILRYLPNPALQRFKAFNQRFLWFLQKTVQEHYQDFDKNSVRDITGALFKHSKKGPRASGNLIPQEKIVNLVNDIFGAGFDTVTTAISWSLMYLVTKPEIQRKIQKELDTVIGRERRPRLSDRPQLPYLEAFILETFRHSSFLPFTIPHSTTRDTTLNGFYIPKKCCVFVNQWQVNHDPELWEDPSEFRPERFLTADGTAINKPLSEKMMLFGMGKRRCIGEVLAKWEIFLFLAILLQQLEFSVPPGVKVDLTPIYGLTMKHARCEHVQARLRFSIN

Cytochrome P450 2C9 = Cytochrome P450 2C9 (Homo sapiens, UniProt P11712)
Chain of Cytochrome P450 2C9 (P11712 whole entry): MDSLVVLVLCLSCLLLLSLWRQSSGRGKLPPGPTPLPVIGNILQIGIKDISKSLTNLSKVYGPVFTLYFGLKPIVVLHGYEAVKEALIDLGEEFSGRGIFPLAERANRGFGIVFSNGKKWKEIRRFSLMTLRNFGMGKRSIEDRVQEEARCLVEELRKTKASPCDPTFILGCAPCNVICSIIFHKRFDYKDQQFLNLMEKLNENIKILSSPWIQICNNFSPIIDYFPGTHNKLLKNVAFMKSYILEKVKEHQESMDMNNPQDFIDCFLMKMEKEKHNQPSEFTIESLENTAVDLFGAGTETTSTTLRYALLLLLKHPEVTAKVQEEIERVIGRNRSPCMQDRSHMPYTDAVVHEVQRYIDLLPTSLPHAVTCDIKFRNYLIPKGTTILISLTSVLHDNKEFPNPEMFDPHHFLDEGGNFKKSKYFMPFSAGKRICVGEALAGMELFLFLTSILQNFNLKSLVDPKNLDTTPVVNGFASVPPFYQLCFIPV

Cytochrome P450 2C19 = Cytochrome P450 2C19 (Homo sapiens, UniProt P33261); experiment: Cytochrome panel assay with activity outcomes. Panel member name: p450-cyp2c19 Compounds with AC50 equal or less than 10 uM are considered active; format: functional; settings: read-out: AC50
Chain of Cytochrome P450 2C19 (P33261 whole entry): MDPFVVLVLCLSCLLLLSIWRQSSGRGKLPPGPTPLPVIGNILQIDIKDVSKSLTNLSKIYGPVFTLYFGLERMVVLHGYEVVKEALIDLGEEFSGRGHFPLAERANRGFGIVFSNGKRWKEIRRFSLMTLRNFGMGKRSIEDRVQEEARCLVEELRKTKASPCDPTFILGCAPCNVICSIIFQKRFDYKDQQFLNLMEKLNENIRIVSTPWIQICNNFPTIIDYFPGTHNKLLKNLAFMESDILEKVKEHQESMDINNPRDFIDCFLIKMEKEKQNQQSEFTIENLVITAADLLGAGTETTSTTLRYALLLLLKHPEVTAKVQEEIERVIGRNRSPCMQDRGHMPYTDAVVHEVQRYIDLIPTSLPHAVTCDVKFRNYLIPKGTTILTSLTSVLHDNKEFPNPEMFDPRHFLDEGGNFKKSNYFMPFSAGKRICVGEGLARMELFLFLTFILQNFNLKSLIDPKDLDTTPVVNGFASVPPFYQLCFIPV

[1] = target: T2, Corticotropin-releasing factor receptor 2/Corticotropin-releasing factor-binding protein (Homo sapiens, UniProt P24387+Q13324); experiment: Dose Response confirmation of uHTS hits for small molecule antagonists of the CRF-binding protein and CRF-R2 receptor complex.; format: functional; settings: read-out: IC50_Mean
T2 sequence (Q13324 whole entry): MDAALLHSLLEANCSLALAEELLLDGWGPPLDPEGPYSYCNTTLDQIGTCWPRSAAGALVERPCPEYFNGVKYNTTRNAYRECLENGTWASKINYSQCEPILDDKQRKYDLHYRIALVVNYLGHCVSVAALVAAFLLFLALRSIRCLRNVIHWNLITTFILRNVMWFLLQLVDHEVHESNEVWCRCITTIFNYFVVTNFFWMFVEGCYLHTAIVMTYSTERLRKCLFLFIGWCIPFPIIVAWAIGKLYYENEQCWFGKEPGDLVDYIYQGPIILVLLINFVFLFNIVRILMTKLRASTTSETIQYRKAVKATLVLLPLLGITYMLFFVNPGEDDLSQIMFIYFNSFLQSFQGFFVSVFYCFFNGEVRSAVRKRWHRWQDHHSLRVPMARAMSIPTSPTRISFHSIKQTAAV
T2 sequence (P24387 whole entry): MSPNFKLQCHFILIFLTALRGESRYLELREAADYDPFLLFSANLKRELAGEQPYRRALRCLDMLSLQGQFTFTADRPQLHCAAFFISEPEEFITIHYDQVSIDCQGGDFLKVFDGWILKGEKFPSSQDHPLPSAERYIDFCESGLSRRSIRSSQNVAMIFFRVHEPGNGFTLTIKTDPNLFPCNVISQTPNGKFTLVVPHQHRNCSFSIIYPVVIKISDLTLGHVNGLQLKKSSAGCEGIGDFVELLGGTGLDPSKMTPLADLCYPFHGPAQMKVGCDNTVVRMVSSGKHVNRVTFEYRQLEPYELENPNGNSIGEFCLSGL

[2] = target: T2, Corticotropin-releasing factor receptor 2/Corticotropin-releasing factor-binding protein; experiment: activators of CRF receptor 2 with binding protein – uHTS hits, confirmation (AID 602473); format: functional; settings: read-out: EC50_Mean

Chain of Cytochrome P450 2D6 (P10635 whole entry): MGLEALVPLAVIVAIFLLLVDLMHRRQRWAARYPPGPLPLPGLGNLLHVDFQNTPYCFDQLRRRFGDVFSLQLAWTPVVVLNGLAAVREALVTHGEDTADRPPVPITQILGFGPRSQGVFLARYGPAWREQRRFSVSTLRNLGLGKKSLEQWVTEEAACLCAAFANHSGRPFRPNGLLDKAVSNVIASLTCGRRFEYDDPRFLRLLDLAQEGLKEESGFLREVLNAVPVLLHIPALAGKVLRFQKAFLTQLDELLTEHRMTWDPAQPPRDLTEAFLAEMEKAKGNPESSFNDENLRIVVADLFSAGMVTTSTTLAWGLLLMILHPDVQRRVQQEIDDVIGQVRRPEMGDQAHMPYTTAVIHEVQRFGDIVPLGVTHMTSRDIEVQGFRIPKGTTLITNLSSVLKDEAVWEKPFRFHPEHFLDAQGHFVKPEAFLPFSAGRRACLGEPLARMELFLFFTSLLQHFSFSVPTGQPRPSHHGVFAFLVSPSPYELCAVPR
Chain of Cytochrome P450 3A4 (P08684 whole entry): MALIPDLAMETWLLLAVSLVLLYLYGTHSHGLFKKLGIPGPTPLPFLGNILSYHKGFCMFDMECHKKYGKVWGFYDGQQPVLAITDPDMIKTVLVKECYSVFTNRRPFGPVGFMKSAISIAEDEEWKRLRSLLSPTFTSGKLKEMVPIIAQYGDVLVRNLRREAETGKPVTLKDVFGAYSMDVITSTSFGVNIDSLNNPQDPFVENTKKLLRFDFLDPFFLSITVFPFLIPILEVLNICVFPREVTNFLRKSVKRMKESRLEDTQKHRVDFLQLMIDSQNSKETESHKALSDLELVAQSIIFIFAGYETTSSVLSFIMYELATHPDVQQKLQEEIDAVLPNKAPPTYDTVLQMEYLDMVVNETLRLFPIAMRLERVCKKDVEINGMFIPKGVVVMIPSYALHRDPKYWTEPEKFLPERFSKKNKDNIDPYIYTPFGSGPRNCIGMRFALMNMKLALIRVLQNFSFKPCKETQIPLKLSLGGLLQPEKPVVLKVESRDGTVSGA

Row | AC50 (Cytochrome P450 3A4) | AC50 (Cytochrome P450 1A2) | AC50 (Cytochrome P450 2C9) | AC50 (Cytochrome P450 2C19) | Compound | AC50 (Cytochrome P450 2D6) | IC50 [1] | EC50 [2]
1 |  | 3.16 µM (inconclusive) | 15.8 µM (inconclusive) |  | CCC(C)NC(=O)c1ccccc1NC(=O)Nc1ccccc1 (centres undefined) |  |  | 
2 | 3.16 µM (inconclusive) | 3.16 µM (inconclusive) |  |  | O=[N+]([O-])c1ccc2c(c1)N=C1O[C@H](c3ccc([C@H]4OC5=Nc6cc([N+](=O)[O-])ccc6NC5=C4O)cc3)C(O)=C1N2 |  |  | 
3 |  | 2.51 µM (inconclusive) |  | 39.8 µM (inconclusive) | O=c1c(-c2cc(F)cc(F)c2)nc2cnc(N3CCNCC3)nc2n1Cc1cccs1 |  |  | 
4 | 17.8 µM (inconclusive) | 39.8 µM (inconclusive) | 28.2 µM (inconclusive) | 10 µM (inconclusive) | COc1ccc(-n2c3c(c(=O)[nH]c2=O)C(C(F)(F)F)(C(F)(F)F)NC(CC(C)C)=N3)cc1 |  |  | 
5 |  | 15.8 µM (inconclusive) |  |  | C=CCOc1c2ccc(C(=O)NC3CCCc4ccccc43)cc2nn1C (centres undefined) | 22.4 µM (inconclusive) |  | 
6 |  | 25.1 µM (inconclusive) |  | 10 µM (inconclusive) | Cn1cnnc1SCC(=O)OCN1C(=O)c2ccccc2C1=O |  |  | 
7 | 0.251 µM (inconclusive) | 1.58 µM (inconclusive) |  |  | CNc1ncncc1-c1ccccc1OC |  |  | 
8 | 22.4 µM (inconclusive) | 25.1 µM (inconclusive) | 31.6 µM (inconclusive) |  | N#CC(c1ccccc1F)(c1ncc(C(F)(F)F)cc1Cl)N1CCOCC1 (centres undefined) |  |  | 
9 | 17.8 µM (inconclusive) |  | 0.141 µM (inconclusive) | 35.5 µM (inconclusive) | CCN1C(=O)C(O)(CC(=O)/C=C/C=C/c2ccccc2)c2ccccc21 (centres undefined) |  |  | 

Row | Compound | AC50 (Cytochrome P450 3A4) | AC50 (Cytochrome P450 1A2) | AC50 (Cytochrome P450 2C9) | AC50 (Cytochrome P450 2C19) | AC50 (Cytochrome P450 2D6) | IC50 [1] | EC50 [2]
10 | c1ccc(N2CC[C@@]3(CCCNC3)C2)cc1 | 20 µM (inconclusive) | 39.8 µM (inconclusive) |  |  | 10 µM (inconclusive) |  | 
11 | C[C@H]1CCCC=CC2C[C@H](O)C[C@@H]2[C@H](O)/C=C\C(=O)O1 (some centres undefined) | 31.6 µM (inconclusive) | 15.8 µM (inconclusive) | 15.8 µM (inconclusive) |  |  |  | 
12 | Cc1cc(C)cc(C(=O)OC2C[C@H]3CC[C@@H](C2)N3C)c1 (some centres undefined) |  | 25.1 µM (inconclusive) |  | 39.8 µM (inconclusive) |  |  | 
13 | O=c1c2ccccc2nc(N2CCCC2)n1-c1ccc(Cl)cc1 |  |  |  | 1.26 µM (inconclusive) | 10 µM (inconclusive) | > 47.1 µM (inactive) | > 53 µM (inactive)

From ChEMBL document CHEMBL1201862, “PubChem BioAssay data set” (2004)
